The values below come from patent US6897198B2, “Method of treatment with combinations of statin and aryl-substituted propanolamine derivatives” (Aventis Pharma Deutschland GmbH, priority 1998, dated 2005).

Assay [1] concerns the target T1, Na+-dependent bile acid transport system (Oryctolagus cuniculus, UniProt Q28727).
T1 construct: Cuticular layer membrane vesicles were prepared from ileum cells by the so-called Mg^2+ precipitation method; from tissue; host or cells: terminal ileum of male New Zealand rabbits (brush-border / cuticular layer membrane vesicles)
T1 sequence (Q28727 1-347): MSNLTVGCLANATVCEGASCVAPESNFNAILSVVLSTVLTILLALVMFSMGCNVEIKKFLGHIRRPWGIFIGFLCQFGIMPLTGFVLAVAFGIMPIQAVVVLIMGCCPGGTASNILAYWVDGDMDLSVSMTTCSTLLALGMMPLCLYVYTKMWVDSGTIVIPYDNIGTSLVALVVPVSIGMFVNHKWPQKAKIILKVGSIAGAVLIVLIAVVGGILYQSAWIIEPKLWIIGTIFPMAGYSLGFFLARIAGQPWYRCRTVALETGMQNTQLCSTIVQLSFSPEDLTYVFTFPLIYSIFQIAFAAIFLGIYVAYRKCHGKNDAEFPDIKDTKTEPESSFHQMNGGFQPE
The experiment in a line: Inhibition of Na+-dependent [3H]-taurocholate uptake in rabbit ileum cuticular layer membrane vesicles. It counts as biochemical. The following applies: Table 1, 50 μM taurocholate, incubation normally 1 minute. The protocol: The compounds according to the invention were tested in a biotest by determining the inhibition of [^3H]-taurocholate uptake in rabbit ileum cuticular layer membrane vesicles. The inhibitory test was carried out as follows:
1. Preparation of Rabbit Ileum Cuticular Layer Membrane Vesicles
Cuticular layer membrane vesicles were prepared from ileum cells by the so-called Mg^2+ precipitation method. Male New Zealand rabbits (body weight 2 to 2.5 kg) were sacrificed by intravenous injection of 0.5 ml T61®, an aqueous solution of 2.5 mg of tetracaine —HCl, 100 mg of embutramide and 25 mg of mebezonium iodide. The ileum was removed and washed with ice-cold physiological saline. The terminal 7/10th of the ileum (measured in the oral-rectal direction, i.e., the terminal ileum, which contains the active Na^+-dependent bile acid transport system) were used for preparing the cuticular layer membrane vesicles. The intestines were frozen in polymer bags at −80° C. under nitrogen. To prepare the membrane vesicles, the frozen intestines were defrosted in a water bath at 30° C. The mucosa was scraped off and suspended in 60 ml of ice-cold 12 mM TRIS/HCl buffer (pH 7.1)/300 mM mannitol, 5 mM EGTA/10 mg/l phenylmethylsulfonyl fluoride/1 mg/l soybean trypsin inhibitor (32 (U/mg)/0.5 mg/l bovine lung trypsin inhibitor (193 U/mg)/5 mg/l bacitracin. After the mixture had been diluted to 300 ml with ice-cold distilled water, it was homogenized in an Ultraturrax (rod 18, IKA Werk Staufen, Germany) for 3 minutes at 75% of maximum speed, with ice-cooling. After 3 ml of 1 M MgCl2 solution had been added (final concentration 10 mM), the mixture was left to stand at 0° C. for exactly 1 minute. The addition of Mg^2+ causes the cell membranes to aggregate and precipitate with the exception of the cuticular layer membranes. After centrifugation for 15 minutes at 3000×g (5000 rpm, SS-34 rotor), the precipitate was discarded, and the supernatant, which contains the cuticular layer membranes, was centrifuged for 30 minutes at 48,000×g (20,000 rpm, SS-34 rotor). The supernatant was discarded, and the precipitate was rehomogenized in 60 ml of 12 mM TRIS/HCl buffer (pH 7.1)/60 mM mannitol, 5 mM EGTA using a Potter Elvejhem homogenizer (Braun, Melsungen, 900 rpm, 10 strokes). After addition of 0.1 ml of 1 M MgCl2 solution and incubation for 15 minutes at 0° C., the mixture was again centrifuged for 15 minutes at 3000×g. The supernatant was subsequently centrifuged for a further 30 minutes at 48,000×g (20,000 rpm, SS-34 rotor). […]
The uptake of substrates into the above-described cuticular layer membrane vesicles was determined by means of the so-called membrane filtration technique. […]

A further assay relates to gallstone-sensitive mice. In words: Test for gallstone formation (cholesterol gallstone formation, lithogenic diet). It counts as in vivo. The following applies: male C57L mice, 100 mg/kg/d (0.1% in the feed), 13 weeks, lithogenic diet alone 5/15. The method, then: Test for Gallstone Formation • 1. Test Substance, Dose and Application • Example 9 of Table 1 (=A1) 100 mg/kg/d 0.1% in the feed • 2. Aim
In this test, the cholesterol gallstone formation in gallstone-sensitive mice was investigated. • 3. Materials and Methods • 3.1 Animals and Housing
The experimental animals used are male C57L mice (Jackson Laboratories) with an average body weight of 25-30 g at the beginning of the adaptation.
The animals were randomly divided into 4 groups (n=10, groups 2 and 3 n=15). Starting at the beginning of the treatment, the mice were either fed a standard rodent feed by Altromin (group 1), or a lithogenic diet by Altromin (groups 2-4); this diet was composed as follows: 15% butter, 1% cholesterol, 50% sugar, 20% casein, 0.5% cholic acid, 5% mineral mix, 2.5% vitamin mix, 2% corn oil, corn starch to 100%. The animals were weighed weekly, and the food consumption was determined by continuous weighings before and after, whereby the dose was calculated. • 3.2. Final Examination
After 11 and 13 weeks, respectively, the animals of each group were sacrificed and the gallbladders subsequently prepared. Gallstones in the gallbladder were then recorded. The gallbladder was dissected, the weight was determined, and the composition of the bile and the gallstones was analyzed.

With `CC(=O)OC[C@@H](OC(C)=O)[C@@H](OC(C)=O)[C@H](OC(C)=O)[C@@H](OC(C)=O)C(=O)NCCCCCCCCCCC(=O)Nc1ccccc1[C@@H](Nc1ccccn1)[C@H](c1ccccn1)[C@H](O)c1ccccc1` [Example 8], the “Bio. Test (quotient of the IC50Na values of the reference substance taurochenodesoxycholate (TCDC) and the test substance)” value in assay [1] amounted to 0.83. Still for that read-out and setting: in the case of `O=C(CCC(=O)Nc1ccccc1[C@@H](Nc1ccccn1)[C@H](c1ccccn1)[C@H](O)c1ccccc1)NC[C@H](O)[C@@H](O)[C@H](O)[C@H](O)CO` [Example 15] it was 0.19; in that of `O=C(NCCCNc1ccccc1[C@@H](Nc1ccccn1)[C@H](c1ccccn1)[C@H](O)c1ccccc1)[C@H](O)[C@@H](O)[C@H](O)[C@H](O)CO` [Example 2], 0.24. As to `O=C(CCCCCCCCCCNC(=O)[C@H](O)[C@@H](O)[C@H](O)[C@H](O)CO)Nc1ccccc1[C@@H](Nc1ccccn1)[C@H](c1ccccn1)[C@H](O)c1ccccc1` [Example 9], the “Bio. Test (quotient of the IC50Na values of the reference substance taurochenodesoxycholate (TCDC) and the test substance)” value in assay [1] was 1.78. Moreover, the “Frequency of gallstones (n/n)” value with gallstone-sensitive mice is 0/10.
